Measurements reported in BindingDB's records for doi:10.1074/jbc.M113.507525 (Western University, 2013).

What was measured:
Test in all cases: SelectScreen Biochemical Kinase Assay
[1] = molecular target: Phosphatidylinositol 4-phosphate 5-kinase type-1 beta (Mus musculus, UniProt P70181)
Protocol: (§1) Biochemical in vitro lipid kinase assays were performed by the SelectScreen biochemical kinase assay service (Invitrogen Ltd.). A stock solution of GS-9820 was prepared in DMSO at a concentration of 10 mM. Ten-point kinase inhibitory activities were measured over a concentration range (5 to 10^4 nM) with ATP at a concentration consistent with the Km of each of the enzymes.

[2] = molecular target: Phosphatidylinositol 4,5-bisphosphate 3-kinase catalytic subunit beta isoform (Mus musculus, UniProt Q8BTI9)
Protocol: as §1

[3] = molecular target: Phosphatidylinositol 4,5-bisphosphate 3-kinase catalytic subunit alpha isoform (Mus musculus, UniProt P42337)
Protocol: as §1

[4] = molecular target: T1, Phosphatidylinositol 4,5-bisphosphate 3-kinase catalytic subunit delta isoform (Mus musculus, UniProt O35904)
T1 sequence (O35904 whole entry): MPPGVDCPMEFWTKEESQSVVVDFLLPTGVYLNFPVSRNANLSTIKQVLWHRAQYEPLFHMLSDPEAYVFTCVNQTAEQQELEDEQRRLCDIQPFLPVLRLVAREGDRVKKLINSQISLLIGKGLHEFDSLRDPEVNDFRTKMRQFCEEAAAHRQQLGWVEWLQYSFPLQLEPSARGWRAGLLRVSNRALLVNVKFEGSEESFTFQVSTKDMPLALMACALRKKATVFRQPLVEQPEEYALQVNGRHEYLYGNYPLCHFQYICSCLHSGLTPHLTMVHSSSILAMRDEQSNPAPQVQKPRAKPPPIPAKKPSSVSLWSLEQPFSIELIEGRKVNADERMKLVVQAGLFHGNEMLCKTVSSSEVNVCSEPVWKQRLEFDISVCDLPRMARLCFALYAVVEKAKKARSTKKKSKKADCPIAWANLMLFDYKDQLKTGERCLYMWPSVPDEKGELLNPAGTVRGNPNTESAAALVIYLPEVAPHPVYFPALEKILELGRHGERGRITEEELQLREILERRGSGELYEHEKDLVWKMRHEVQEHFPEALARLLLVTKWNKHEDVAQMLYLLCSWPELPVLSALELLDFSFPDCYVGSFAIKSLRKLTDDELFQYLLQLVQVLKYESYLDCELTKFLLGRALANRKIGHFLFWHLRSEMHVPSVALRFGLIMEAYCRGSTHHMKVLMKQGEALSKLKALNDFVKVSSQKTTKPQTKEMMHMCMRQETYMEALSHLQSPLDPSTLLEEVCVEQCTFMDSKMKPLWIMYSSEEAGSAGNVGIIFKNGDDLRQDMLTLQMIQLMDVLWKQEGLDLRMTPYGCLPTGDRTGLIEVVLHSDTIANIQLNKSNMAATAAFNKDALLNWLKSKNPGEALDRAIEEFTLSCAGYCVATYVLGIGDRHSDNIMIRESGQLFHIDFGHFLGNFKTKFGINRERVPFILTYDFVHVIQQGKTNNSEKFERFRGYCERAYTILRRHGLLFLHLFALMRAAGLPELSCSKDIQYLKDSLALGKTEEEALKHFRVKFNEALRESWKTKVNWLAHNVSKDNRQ
Protocol: as §1

[5] = molecular target: DNA-dependent protein kinase catalytic subunit (Mus musculus, UniProt P97313)
Protocol: as §1

[6] = molecular target: Phosphatidylinositol 4,5-bisphosphate 3-kinase catalytic subunit gamma isoform (Mus musculus, UniProt Q9JHG7)
Protocol: as §1

[7] = molecular target: Phosphatidylinositol 4-phosphate 5-kinase type-1 alpha (Mus musculus, UniProt P70182)
Protocol: as §1

Chain of Phosphatidylinositol 4,5-bisphosphate 3-kinase catalytic subunit beta isoform (Q8BTI9 whole entry, canonical isoform): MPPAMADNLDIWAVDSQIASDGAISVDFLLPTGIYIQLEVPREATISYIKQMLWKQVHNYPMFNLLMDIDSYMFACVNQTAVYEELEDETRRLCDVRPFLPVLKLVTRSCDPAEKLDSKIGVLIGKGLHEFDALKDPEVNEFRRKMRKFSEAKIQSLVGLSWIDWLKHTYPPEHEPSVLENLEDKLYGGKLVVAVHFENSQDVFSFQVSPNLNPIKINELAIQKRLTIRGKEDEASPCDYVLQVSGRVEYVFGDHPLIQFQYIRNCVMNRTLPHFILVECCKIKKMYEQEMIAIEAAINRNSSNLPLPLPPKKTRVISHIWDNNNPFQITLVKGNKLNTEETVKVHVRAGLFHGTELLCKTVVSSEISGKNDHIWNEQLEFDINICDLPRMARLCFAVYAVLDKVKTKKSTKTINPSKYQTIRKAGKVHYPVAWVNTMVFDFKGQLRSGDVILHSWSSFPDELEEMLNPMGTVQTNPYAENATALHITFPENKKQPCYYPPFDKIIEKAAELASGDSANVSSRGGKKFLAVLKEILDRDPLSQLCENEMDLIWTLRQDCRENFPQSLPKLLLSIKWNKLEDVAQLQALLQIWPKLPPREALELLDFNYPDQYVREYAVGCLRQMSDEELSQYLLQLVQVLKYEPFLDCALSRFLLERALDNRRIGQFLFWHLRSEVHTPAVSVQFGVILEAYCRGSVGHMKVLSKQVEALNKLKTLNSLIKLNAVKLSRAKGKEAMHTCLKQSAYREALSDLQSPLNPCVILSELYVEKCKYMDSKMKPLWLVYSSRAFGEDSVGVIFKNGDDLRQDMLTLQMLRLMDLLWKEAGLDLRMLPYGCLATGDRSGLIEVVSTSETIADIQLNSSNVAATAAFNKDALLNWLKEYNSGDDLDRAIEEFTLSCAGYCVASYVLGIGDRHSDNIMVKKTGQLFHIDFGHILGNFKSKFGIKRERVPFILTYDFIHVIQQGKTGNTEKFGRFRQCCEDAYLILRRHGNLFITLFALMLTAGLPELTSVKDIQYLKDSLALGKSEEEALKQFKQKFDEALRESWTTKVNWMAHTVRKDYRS
Chain of Phosphatidylinositol 4,5-bisphosphate 3-kinase catalytic subunit alpha isoform (P42337 whole entry, canonical isoform): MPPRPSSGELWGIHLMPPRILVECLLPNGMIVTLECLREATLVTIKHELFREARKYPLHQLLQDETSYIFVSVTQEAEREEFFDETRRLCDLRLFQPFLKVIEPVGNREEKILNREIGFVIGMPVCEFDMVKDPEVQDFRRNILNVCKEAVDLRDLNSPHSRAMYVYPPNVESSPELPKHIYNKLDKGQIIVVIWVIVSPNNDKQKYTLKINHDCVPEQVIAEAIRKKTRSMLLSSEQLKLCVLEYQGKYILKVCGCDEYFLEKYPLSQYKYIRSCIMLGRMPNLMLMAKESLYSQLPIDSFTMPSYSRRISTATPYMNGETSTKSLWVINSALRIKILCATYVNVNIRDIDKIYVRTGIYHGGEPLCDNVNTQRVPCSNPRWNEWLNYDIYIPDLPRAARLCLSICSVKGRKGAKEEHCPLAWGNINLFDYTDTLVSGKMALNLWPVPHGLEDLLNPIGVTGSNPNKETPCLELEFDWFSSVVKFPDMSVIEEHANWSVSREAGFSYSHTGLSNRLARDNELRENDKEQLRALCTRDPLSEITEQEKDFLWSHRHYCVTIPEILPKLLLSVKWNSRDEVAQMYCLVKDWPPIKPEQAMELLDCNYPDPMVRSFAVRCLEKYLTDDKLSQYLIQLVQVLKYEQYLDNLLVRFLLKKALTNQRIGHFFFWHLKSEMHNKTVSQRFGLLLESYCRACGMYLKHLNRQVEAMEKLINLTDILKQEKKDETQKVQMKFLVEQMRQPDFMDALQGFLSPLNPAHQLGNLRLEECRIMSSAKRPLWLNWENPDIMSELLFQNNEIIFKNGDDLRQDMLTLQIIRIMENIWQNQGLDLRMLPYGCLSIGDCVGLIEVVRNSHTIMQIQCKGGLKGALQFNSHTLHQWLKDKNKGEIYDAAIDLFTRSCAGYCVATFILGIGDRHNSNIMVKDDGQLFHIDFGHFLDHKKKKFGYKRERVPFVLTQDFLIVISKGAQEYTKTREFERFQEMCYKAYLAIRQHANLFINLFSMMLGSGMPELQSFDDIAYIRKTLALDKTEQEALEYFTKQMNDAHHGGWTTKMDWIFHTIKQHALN
Chain of Phosphatidylinositol 4,5-bisphosphate 3-kinase catalytic subunit gamma isoform (Q9JHG7 whole entry, canonical isoform): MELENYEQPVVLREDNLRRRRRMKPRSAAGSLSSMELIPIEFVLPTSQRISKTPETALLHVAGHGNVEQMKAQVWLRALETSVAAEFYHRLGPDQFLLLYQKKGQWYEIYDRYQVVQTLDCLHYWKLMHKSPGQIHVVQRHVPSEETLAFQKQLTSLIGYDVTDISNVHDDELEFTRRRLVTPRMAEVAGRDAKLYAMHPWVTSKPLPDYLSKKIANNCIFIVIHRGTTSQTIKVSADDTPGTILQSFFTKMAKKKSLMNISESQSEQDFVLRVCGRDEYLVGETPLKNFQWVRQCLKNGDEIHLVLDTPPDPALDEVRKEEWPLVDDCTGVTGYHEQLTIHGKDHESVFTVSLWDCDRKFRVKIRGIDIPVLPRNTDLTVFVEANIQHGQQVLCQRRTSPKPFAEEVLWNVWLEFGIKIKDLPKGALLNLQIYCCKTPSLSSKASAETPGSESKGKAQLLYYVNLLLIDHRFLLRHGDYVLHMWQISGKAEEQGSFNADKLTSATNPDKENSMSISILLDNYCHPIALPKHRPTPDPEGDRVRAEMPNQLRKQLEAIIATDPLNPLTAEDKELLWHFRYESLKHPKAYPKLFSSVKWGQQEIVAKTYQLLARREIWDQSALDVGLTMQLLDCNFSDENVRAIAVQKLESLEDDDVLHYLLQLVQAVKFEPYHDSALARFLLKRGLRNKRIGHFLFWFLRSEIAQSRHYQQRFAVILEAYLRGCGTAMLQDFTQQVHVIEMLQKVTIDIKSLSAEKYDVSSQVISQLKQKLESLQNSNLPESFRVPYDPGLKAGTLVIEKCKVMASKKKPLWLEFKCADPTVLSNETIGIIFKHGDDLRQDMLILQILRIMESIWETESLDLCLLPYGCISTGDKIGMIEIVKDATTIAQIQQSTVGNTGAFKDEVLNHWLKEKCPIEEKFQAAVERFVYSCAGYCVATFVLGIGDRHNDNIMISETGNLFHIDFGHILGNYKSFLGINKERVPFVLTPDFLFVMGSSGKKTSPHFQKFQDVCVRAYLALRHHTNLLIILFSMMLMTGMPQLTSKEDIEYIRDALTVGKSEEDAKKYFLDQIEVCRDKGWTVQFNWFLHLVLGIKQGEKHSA
Chain of Phosphatidylinositol 4-phosphate 5-kinase type-1 beta (P70181 whole entry): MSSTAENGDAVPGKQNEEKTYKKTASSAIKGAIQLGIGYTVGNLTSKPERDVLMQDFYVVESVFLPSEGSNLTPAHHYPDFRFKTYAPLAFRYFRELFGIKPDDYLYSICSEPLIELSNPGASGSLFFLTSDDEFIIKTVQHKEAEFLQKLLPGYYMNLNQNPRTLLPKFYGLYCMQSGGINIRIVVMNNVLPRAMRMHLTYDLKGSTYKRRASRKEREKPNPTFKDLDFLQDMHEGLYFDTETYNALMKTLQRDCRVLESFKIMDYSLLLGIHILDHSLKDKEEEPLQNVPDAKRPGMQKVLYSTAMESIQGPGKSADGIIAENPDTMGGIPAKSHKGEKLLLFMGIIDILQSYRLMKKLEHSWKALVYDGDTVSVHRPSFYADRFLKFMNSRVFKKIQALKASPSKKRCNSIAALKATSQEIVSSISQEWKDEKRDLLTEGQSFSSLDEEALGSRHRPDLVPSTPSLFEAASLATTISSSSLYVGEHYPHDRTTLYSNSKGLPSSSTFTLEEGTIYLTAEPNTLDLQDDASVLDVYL
Chain of Phosphatidylinositol 4-phosphate 5-kinase type-1 alpha (P70182 whole entry): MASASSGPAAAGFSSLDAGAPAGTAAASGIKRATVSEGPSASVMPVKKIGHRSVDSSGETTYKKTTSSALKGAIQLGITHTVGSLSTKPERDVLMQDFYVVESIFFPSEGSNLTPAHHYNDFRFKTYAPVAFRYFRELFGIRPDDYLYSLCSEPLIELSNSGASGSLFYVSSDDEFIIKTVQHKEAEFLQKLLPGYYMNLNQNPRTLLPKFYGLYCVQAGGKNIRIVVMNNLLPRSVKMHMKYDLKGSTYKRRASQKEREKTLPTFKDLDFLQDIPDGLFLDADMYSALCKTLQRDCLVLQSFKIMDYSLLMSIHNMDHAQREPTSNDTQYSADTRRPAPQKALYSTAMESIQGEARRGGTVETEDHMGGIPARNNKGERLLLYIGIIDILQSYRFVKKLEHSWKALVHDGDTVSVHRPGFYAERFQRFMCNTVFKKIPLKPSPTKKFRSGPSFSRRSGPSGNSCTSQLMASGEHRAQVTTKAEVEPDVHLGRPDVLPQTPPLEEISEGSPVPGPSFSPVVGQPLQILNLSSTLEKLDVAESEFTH

With `C[C@H](Nc1ncnc2[nH]cnc12)c1nc2ccc(F)cc2c(=O)n1-c1ccccc1` [GS-9820] the IC50 [1] was greater than 10 µM, the IC50 [2] was 3.38 µM and the IC50 [3] was 5.44 µM. It also gave an IC50 [4] of 0.0127 µM, an IC50 [5] of 18.7 µM and an IC50 [6] of 1.39 µM. It also gave an IC50 [7] greater than 10 µM.
